Active and inactive are the calls of the source. The rule behind the calls is not given here.
Tested on: GENE-TOX genotoxicity assays, various organisms and cells
Assay: GENE-TOX mutagenicity studies
[1] = Species/Cell Type: Saccharomyces cerevisiae, Assay Type: Reverse gene mutation, Assay Code: YERT, Evaluation Type: Evaluation A (Pre-1980)
[2] = Species/Cell Type: Salmonella typhimurium (one or more of the five standard strains: TA98, TA100, TA1535, TA1537, and TA1538), Assay Type: Histidine reverse gene mutation, Ames assay, Assay Code: SALT, Evaluation Type: Evaluation A (Pre-1980)
[3] = Species/Cell Type: Allium cepa, Assay Type: Chromosome aberrations, Assay Code: ALC+, Evaluation Type: Evaluation A (Pre-1980)
[4] = Species/Cell Type: Saccharomyces cerevisiae, Assay Type: Mitotic recombination or gene conversion, Assay Code: YEH-, Evaluation Type: Evaluation A (Pre-1980)
[5] = Species/Cell Type: Saccharomyces cerevisiae, Assay Type: Mitotic recombination or gene conversion, Assay Code: YEC+, Evaluation Type: Evaluation A (Pre-1980)
[6] = Species/Cell Type: Mammalian polychromatic erythrocytes, Assay Type: Micronucleus test, chromosome aberrations, Assay Code: MNTT, Evaluation Type: Evaluation A (Pre-1980)
[7] = Species/Cell Type: Salmonella typhimurium (one or more of the five standard strains: TA98, TA100, TA1535, TA1537, and TA1538), Assay Type: Histidine reverse gene mutation, Ames assay, Assay Code: SAL-, Evaluation Type: Evaluation A (Pre-1980)

## [N-]=[N+]=CC(=O)CCCCC(=O)C=[N+]=[N-]
Species/Cell Type: Allium cepa, Assay Type: Chromosome aberrations, Assay Code: ALC-, Evaluation Type: Evaluation A (Pre-1980)
  mutagenic call: inactive; negative
Species/Cell Type: Aspergillus nidulans, Assay Type: Reverse gene mutation, Assay Code: ASRT, Evaluation Type: Evaluation A (Pre-1980)
  mutagenic call: no conclusion
Species/Cell Type: Hordeum vulgare (barley), Assay Type: Gene mutation, Assay Code: HOM+, Evaluation Type: Evaluation A (Pre-1980)
  mutagenic call: active; positive

## CCN(CCCl)CCCNc1c2ccc(Cl)cc2nc2ccc(OC)nc12
Species/Cell Type: Chinese hamster ovary (CHO) cells, Assay Type: Forward gene mutation at the HPRT locus, Assay Code: CHO+, Evaluation Type: Evaluation B (Post-1980)
  mutagenic call: active; positive

## COc1ccc(/C=N/NC(=O)COc2ccc(Br)cc2CN2CCOCC2)cc1
[1]
  mutagenic call: no conclusion

## O[C@@H]1[C@@H]2O[C@@H]2c2ccccc2[C@H]1O
Species/Cell Type: Escherichia coli polA (W3119 vs P3478), Assay Type: Rec-assay, DNA effects (bacterial DNA repair), Assay Code: RE1+, Evaluation Type: Evaluation A (Pre-1980)
  mutagenic call: active; positive

## O=C1CCc2c1c(=O)oc1c3c(cc(O)c21)O[C@H]1OC=C[C@@H]31
[2]
  mutagenic call: no conclusion

## CCN(CCCCCCN(CC)C(=O)C(Cl)Cl)C(=O)C(Cl)Cl
Species/Cell Type: Human, Sex: Male, Assay Type: Sperm morphology, Assay Code: SPH+, Evaluation Type: Evaluation A (Pre-1980)
  mutagenic call: active; positive

## [Hg][c]1ccccc1
Species/Cell Type: Allium cepa, Assay Type: Chromosome aberrations, Assay Code: ALC+D, Dose Response: With dose response, Evaluation Type: Evaluation A (Pre-1980)
  mutagenic call: active; positive

## [Cl][La]([Cl])[Cl]
Species/Cell Type: Bacillus subtilis (H17 vs M45), Assay Type: Rec-assay, spot test, DNA effects (bacterial DNA repair), Assay Code: REW-, Evaluation Type: Evaluation A (Pre-1980)
  mutagenic call: inactive; negative

## O=C(O)[C@@H]1[C@H](C(=O)O)[C@H]2CC[C@@H]1O2
[3]
  mutagenic call: active; positive

## NCC[C@H](O)C(=O)N[C@@H]1C[C@H](N)[C@@H](O[C@H]2O[C@H](CN)[C@@H](O)[C@H](O)[C@H]2O)[C@H](O)[C@H]1O[C@H]1O[C@H](CO)[C@@H](O)[C@H](N)[C@H]1O
[4]
  mutagenic call: inactive; negative

## NC[C@@H]1OC(O[C@H]2[C@@H](O)[C@H](O[C@@H]3[C@@H](O)[C@H](N)C[C@H](N)[C@H]3O[C@H]3O[C@H](CN)[C@@H](O)[C@H](O)[C@H]3N)O[C@@H]2CO)[C@H](N)[C@@H](O)[C@@H]1O (stereo partly specified)
Species/Cell Type: Rat, Sex: Male, Assay Type: Sperm morphology, Assay Code: SPA+, Evaluation Type: Evaluation A (Pre-1980)
  mutagenic call: active; positive

## O=c1c2ccccc2sc2c(CO)ccc(NCCN3CCCCC3)c12
Species/Cell Type: Mouse lymphoma (L5178Y) cells, Assay Type: Forward gene mutation at the thymidine kinase (TK) locus, chromosome aberrations, Assay Code: L51+, Evaluation Type: Evaluation A (Pre-1980)
  mutagenic call: active; positive

## C[C@]12CCC[C@H](O1)c1c(cc3c(c1O)C(=O)c1c(O)cc(O)cc1C3=O)O2
[2]
  mutagenic call: no conclusion

## C[CH2][Hg][S]c1ccccc1C(=O)O
[5]
  mutagenic call: active; positive

## ClCC1OC1CCl (stereo unspecified)
Species/Cell Type: Drosophila melanogaster, Assay Type: Sex-linked recessive lethal gene mutation, Assay Code: SRL+, Evaluation Type: Evaluation A (Pre-1980)
  mutagenic call: active; positive

## O=C(NC(=O)c1c(F)cccc1F)Nc1ccc(Cl)cc1
[6]
  mutagenic call: no conclusion
Species/Cell Type: Mouse lymphoma (L5178Y) cells, Assay Type: Forward gene mutation at the thymidine kinase (TK) locus, chromosome aberrations, Assay Code: L51T, Evaluation Type: Evaluation A (Pre-1980)
  mutagenic call: no conclusion
[7]
  mutagenic call: inactive; negative

## Oc1cccc(O)c1
[3]
  mutagenic call: active; positive
Species/Cell Type: Human lymphocytes, Assay Type: Sister-chromatid exchange (SCE) in vitro, Assay Code: SCL-, Evaluation Type: Evaluation B (Post-1980)
  mutagenic call: inactive; negative
Species/Cell Type: Human, Assay Type: Sister-chromatid exchange (SCE) in vitro, Assay Code: SC1-, Evaluation Type: Evaluation B (Post-1980)
  mutagenic call: inactive; negative
[6]
  mutagenic call: no conclusion
Species/Cell Type: Neurospora crassa, Assay Type: Aneuploidy, chromosome aberrations, Assay Code: NEN-, Evaluation Type: Evaluation A (Pre-1980)
  mutagenic call: inactive; negative
Species/Cell Type: Nonhuman, Assay Type: Sister-chromatid exchange (SCE) in vitro, Assay Code: SC2T, Evaluation Type: Evaluation B (Post-1980)
  mutagenic call: no conclusion
Species/Cell Type: Nonhuman, Assay Type: Sister-chromatid exchange (SCE) in vivo, Assay Code: SC3-, Evaluation Type: Evaluation B (Post-1980)
  mutagenic call: inactive; negative
[7]
  mutagenic call: inactive; negative

## CCN(CC)CC(O)CNc1c2ccc(Cl)cc2nc2ccc(OC)cc12 (stereo unspecified)
Species/Cell Type: Mammalian polychromatic erythrocytes, Assay Type: Micronucleus test, chromosome aberrations, Assay Code: MNT+U, Dose Response: Unconfirmed positive response, Evaluation Type: Evaluation A (Pre-1980)
  mutagenic call: active; positive

## C=C[C@H]1CN2CC[C@H]1C[C@H]2[C@H](O)c1ccnc2ccc(OC)cc12
Species/Cell Type: Mammalian polychromatic erythrocytes, Assay Type: Micronucleus test, chromosome aberrations, Assay Code: MNT+U, Dose Response: Unconfirmed positive response, Evaluation Type: Evaluation B (Post-1980)
  mutagenic call: active; positive
Species/Cell Type: Nonhuman, Assay Type: Sister-chromatid exchange (SCE) in vivo, Assay Code: SC3+D, Dose Response: With dose response, Evaluation Type: Evaluation B (Post-1980)
  mutagenic call: active; positive

## CCN(CC)Cc1cc(Br)ccc1OCC(=O)NN
[1]
  mutagenic call: no conclusion

## Nc1ncnc2c1ncn2[C@@H]1O[C@H](COP(=O)(O)OP(=O)(O)OP(=O)(O)O)[C@@H](O)[C@H]1O
Species/Cell Type: Drosophila melanogaster, Assay Type: Aneuploidy, whole sex chromosome loss, chromosome aberrations, Assay Code: DAC-M, Evaluation Type: Evaluation A (Pre-1980)
  mutagenic call: inactive; negative

## CNC(=O)Nc1nc2ccccc2s1
Species/Cell Type: Saccharomyces cerevisiae, Assay Type: Mitotic recombination or gene conversion, Assay Code: YEC-, Evaluation Type: Evaluation A (Pre-1980)
  mutagenic call: inactive; negative

## O=c1nc(NO)ccn1[C@@H]1O[C@H](CO)[C@@H](O)[C@H]1O
Species/Cell Type: Escherichia coli WP2, Assay Type: Tryptophan reverse gene mutation, Assay Code: WP2+D, Dose Response: With dose response, Evaluation Type: Evaluation A (Pre-1980)
  mutagenic call: active; positive
Species/Cell Type: Escherichia coli WP2 UVRA, Assay Type: Tryptophan reverse gene mutation, Assay Code: WPU+D, Dose Response: With dose response, Evaluation Type: Evaluation A (Pre-1980)
  mutagenic call: active; positive

## COP(=O)(OC)O/C(C)=C/C(=O)N(C)C
Species/Cell Type: Nonhuman, Assay Type: Sister-chromatid exchange (SCE) in vitro, Assay Code: SC2+D, Dose Response: With dose response, Evaluation Type: Evaluation B (Post-1980)
  mutagenic call: active; positive
[5]
  mutagenic call: active; positive

## C[C@@H]1O[C@H]1P(=O)(O)O
Species/Cell Type: Mammalian polychromatic erythrocytes, Assay Type: Micronucleus test, chromosome aberrations, Assay Code: MNTT, Evaluation Type: Evaluation B (Post-1980)
  mutagenic call: no conclusion

## Nc1c(N=Nc2ccc([N+](=O)[O-])cc2)c(S(=O)(=O)O)cc2cc(S(=O)(=O)O)c(N=Nc3ccccc3)c(O)c12
Species/Cell Type: Bacillus subtilis (H17 vs M45), Assay Type: Rec-assay, spot test, DNA effects (bacterial DNA repair), Assay Code: REWT, Evaluation Type: Evaluation A (Pre-1980)
  mutagenic call: no conclusion

## CN(C)c1ccc(N=Nc2ccccc2)cc1
Species/Cell Type: Bacillus subtilis (H17 vs M45T), Assay Type: Rec-assay, spot test, DNA effects (bacterial DNA repair), Assay Code: REXT, Evaluation Type: Evaluation A (Pre-1980)
  mutagenic call: no conclusion
Species/Cell Type: Drosophila melanogaster, Assay Type: Sex-linked recessive lethal gene mutation, Assay Code: SRLT, Evaluation Type: Evaluation A (Pre-1980)
  mutagenic call: no conclusion
Species/Cell Type: Escherichia coli polA (W3110 vs P3478), Assay Type: Rec-assay, DNA effects (bacterial DNA repair), Assay Code: RE2-, Evaluation Type: Evaluation A (Pre-1980)
  mutagenic call: inactive; negative
Species/Cell Type: Escherichia coli polA (W3119 vs P3478), Assay Type: Rec-assay, DNA effects (bacterial DNA repair), Assay Code: RE1T, Evaluation Type: Evaluation A (Pre-1980)
  mutagenic call: no conclusion
Species/Cell Type: Fischer rat embryo (RLV/1706) cells, Assay Type: Cell transformation, viral enhanced, Assay Code: CTR+, Evaluation Type: Evaluation A (Pre-1980)
  mutagenic call: active; positive
Species/Cell Type: Human diploid fibroblasts, Assay Type: Unscheduled DNA synthesis (UDS) in vitro, DNA effects, Assay Code: UDHT, Evaluation Type: Evaluation A (Pre-1980)
  mutagenic call: no conclusion
Species/Cell Type: Mammalian polychromatic erythrocytes, Assay Type: Micronucleus test, chromosome aberrations, Assay Code: MNT+, Evaluation Type: Evaluation A (Pre-1980)
  mutagenic call: active; positive
Species/Cell Type: Mouse (BALB/c-3T3) cells, Assay Type: Cell transformation, Assay Code: CTB-, Evaluation Type: Evaluation A (Pre-1980)
  mutagenic call: inactive; negative
Species/Cell Type: Mouse, Sex: Male, Assay Type: Sperm morphology, Assay Code: SPI-, Evaluation Type: Evaluation A (Pre-1980)
  mutagenic call: inactive; negative
Species/Cell Type: Nonhuman, Assay Type: In vivo carcinogenicity studies, Assay Code: CCG+, Evaluation Type: Evaluation A (Pre-1980)
  call: active; positive
Species/Cell Type: Nonhuman, Assay Type: Sister-chromatid exchange (SCE) in vitro, Assay Code: SC2+D*, Activation: With metabolic activation, Dose Response: With dose response, Evaluation Type: Evaluation B (Post-1980)
  mutagenic call: active; positive
Species/Cell Type: Nonhuman, Assay Type: Sister-chromatid exchange (SCE) in vivo, Assay Code: SC3+, Evaluation Type: Evaluation B (Post-1980)
  mutagenic call: active; positive
[4]
  mutagenic call: inactive; negative
Species/Cell Type: Salmonella typhimurium (one or more of the five standard strains: TA98, TA100, TA1535, TA1537, and TA1538), Assay Type: Histidine reverse gene mutation, Ames assay, Assay Code: SAL+*, Activation: With metabolic activation, Evaluation Type: Evaluation A (Pre-1980)
  mutagenic call: active; positive
Species/Cell Type: Salmonella typhimurium, Assay Type: Forward and reverse gene mutation, body fluid assay, Assay Code: BFU+, Evaluation Type: Evaluation A (Pre-1980)
  mutagenic call: active; positive
Species/Cell Type: Syrian hamster embryo (SHE) cells, Assay Type: Cell transformation, clonal assay, Assay Code: CTCT, Evaluation Type: Evaluation A (Pre-1980)
  mutagenic call: no conclusion

Reference: PubChem BioAssay AID1259408 (Genetic Toxicology Data Bank (GENE-TOX), 2018)
